Assay: Solid state solubility of PTX and TXT in polymers (phase separation in cast films)
Assay type: physicochemical
Design: key: +ve: Phase separation; −ve: No phase separation
Source text: For this example, polymer and drug solutions in chloroform at different % of drug to polymer were casted into films on glass slides. Following solvent evaporation of chloroform in a chemical hood overnight, the casted films were observed under a light microscope. Phase separation was clearly evident from crystallization of the drug in the polymer film whereas the films were homogeneous when there was no phase separation.

Measured: Phase Separation

CC(=O)O[C@H]1C(=O)[C@@]2(C)[C@H]([C@H](OC(=O)c3ccccc3)[C@]3(O)C[C@H](OC(=O)[C@H](O)[C@@H](NC(=O)c4ccccc4)c4ccccc4)C(C)=C1C3(C)C)[C@]1(OC(C)=O)CO[C@@H]1C[C@@H]2O [Paclitaxel, 5ß,20-Epoxy-1,2a,4,7ß,10ß,13a-hexahydroxytax-11-en-9-one 4,10-diacetate 2-benzoate 13-ester with (2R,3S)-N-benzoyl-3-phenylisoserine]
+: drug 1% w/w, polymer inherent viscosity 0.16 dL/g, Lactide/Glycolide 50/50 | drug 1% w/w, polymer inherent viscosity 0.18 dL/g, Lactide/Glycolide 75/25 | drug 1% w/w, polymer inherent viscosity 0.39 dL/g, Lactide/Glycolide 50/50 | drug 1% w/w, polymer inherent viscosity 0.63 dL/g, Lactide/Glycolide 85/15 | drug 1% w/w, polymer inherent viscosity 0.64 dL/g, Lactide/Glycolide 65/35 | drug 1% w/w, polymer inherent viscosity 0.64 dL/g, Lactide/Glycolide 75/25 | drug 1% w/w, polymer inherent viscosity 0.67 dL/g, Lactide/Glycolide 65/35 | drug 1% w/w, polymer inherent viscosity 0.69 dL/g, Lactide/Glycolide 50/50 (first of two such lines, r12) | drug 1% w/w, polymer inherent viscosity 0.69 dL/g, Lactide/Glycolide 50/50 (second of two such lines, r13) | drug 1% w/w, polymer inherent viscosity 0.76-0.94 dL/g, Lactide/Glycolide 50/50 | drug 1% w/w, polymer inherent viscosity 0.87 dL/g, Lactide/Glycolide 50/50 | drug 1% w/w, polymer inherent viscosity 1.15 dL/g, Lactide/Glycolide 50/50 | drug 1% w/w, polymer inherent viscosity 1.24 dL/g, Lactide/Glycolide 50/50 | drug 5% w/w, polymer inherent viscosity 0.16 dL/g, Lactide/Glycolide 50/50 | drug 5% w/w, polymer inherent viscosity 0.18 dL/g, Lactide/Glycolide 75/25 | drug 5% w/w, polymer inherent viscosity 0.39 dL/g, Lactide/Glycolide 50/50 | drug 5% w/w, polymer inherent viscosity 0.63 dL/g, Lactide/Glycolide 85/15 | drug 5% w/w, polymer inherent viscosity 0.64 dL/g, Lactide/Glycolide 65/35 | drug 5% w/w, polymer inherent viscosity 0.64 dL/g, Lactide/Glycolide 75/25 | drug 5% w/w, polymer inherent viscosity 0.67 dL/g, Lactide/Glycolide 65/35 | drug 5% w/w, polymer inherent viscosity 0.69 dL/g, Lactide/Glycolide 50/50 (first of two such lines, r12) | drug 5% w/w, polymer inherent viscosity 0.69 dL/g, Lactide/Glycolide 50/50 (second of two such lines, r13) | drug 5% w/w, polymer inherent viscosity 0.76-0.94 dL/g, Lactide/Glycolide 50/50 | drug 5% w/w, polymer inherent viscosity 0.87 dL/g, Lactide/Glycolide 50/50 | drug 5% w/w, polymer inherent viscosity 1.15 dL/g, Lactide/Glycolide 50/50 | drug 5% w/w, polymer inherent viscosity 1.24 dL/g, Lactide/Glycolide 50/50 | drug 10% w/w, polymer inherent viscosity 0.16 dL/g, Lactide/Glycolide 50/50 | drug 10% w/w, polymer inherent viscosity 0.18 dL/g, Lactide/Glycolide 75/25 | drug 10% w/w, polymer inherent viscosity 0.39 dL/g, Lactide/Glycolide 50/50 | drug 10% w/w, polymer inherent viscosity 0.63 dL/g, Lactide/Glycolide 85/15 | drug 10% w/w, polymer inherent viscosity 0.64 dL/g, Lactide/Glycolide 65/35 | drug 10% w/w, polymer inherent viscosity 0.64 dL/g, Lactide/Glycolide 75/25 | drug 10% w/w, polymer inherent viscosity 0.67 dL/g, Lactide/Glycolide 65/35 | drug 10% w/w, polymer inherent viscosity 0.69 dL/g, Lactide/Glycolide 50/50 (first of two such lines, r12) | drug 10% w/w, polymer inherent viscosity 0.69 dL/g, Lactide/Glycolide 50/50 (second of two such lines, r13) | drug 10% w/w, polymer inherent viscosity 0.76-0.94 dL/g, Lactide/Glycolide 50/50 | drug 10% w/w, polymer inherent viscosity 0.87 dL/g, Lactide/Glycolide 50/50 | drug 10% w/w, polymer inherent viscosity 1.15 dL/g, Lactide/Glycolide 50/50 | drug 10% w/w, polymer inherent viscosity 1.24 dL/g, Lactide/Glycolide 50/50 | drug 15% w/w, polymer inherent viscosity 0.16 dL/g, Lactide/Glycolide 50/50 | drug 15% w/w, polymer inherent viscosity 0.18 dL/g, Lactide/Glycolide 75/25 | drug 15% w/w, polymer inherent viscosity 0.39 dL/g, Lactide/Glycolide 50/50 | drug 15% w/w, polymer inherent viscosity 0.63 dL/g, Lactide/Glycolide 85/15 | drug 15% w/w, polymer inherent viscosity 0.64 dL/g, Lactide/Glycolide 65/35 | drug 15% w/w, polymer inherent viscosity 0.64 dL/g, Lactide/Glycolide 75/25 | drug 15% w/w, polymer inherent viscosity 0.67 dL/g, Lactide/Glycolide 65/35 | drug 15% w/w, polymer inherent viscosity 0.69 dL/g, Lactide/Glycolide 50/50 (first of two such lines, r12) | drug 15% w/w, polymer inherent viscosity 0.69 dL/g, Lactide/Glycolide 50/50 (second of two such lines, r13) | drug 15% w/w, polymer inherent viscosity 0.76-0.94 dL/g, Lactide/Glycolide 50/50 | drug 15% w/w, polymer inherent viscosity 0.87 dL/g, Lactide/Glycolide 50/50 | drug 15% w/w, polymer inherent viscosity 1.15 dL/g, Lactide/Glycolide 50/50 | drug 15% w/w, polymer inherent viscosity 1.24 dL/g, Lactide/Glycolide 50/50 | drug 20% w/w, polymer inherent viscosity 0.16 dL/g, Lactide/Glycolide 50/50 | drug 20% w/w, polymer inherent viscosity 0.18 dL/g, Lactide/Glycolide 75/25 | drug 20% w/w, polymer inherent viscosity 0.39 dL/g, Lactide/Glycolide 50/50 | drug 20% w/w, polymer inherent viscosity 0.63 dL/g, Lactide/Glycolide 85/15 | drug 20% w/w, polymer inherent viscosity 0.64 dL/g, Lactide/Glycolide 65/35 | drug 20% w/w, polymer inherent viscosity 0.64 dL/g, Lactide/Glycolide 75/25 | drug 20% w/w, polymer inherent viscosity 0.67 dL/g, Lactide/Glycolide 65/35 | drug 20% w/w, polymer inherent viscosity 0.69 dL/g, Lactide/Glycolide 50/50 (first of two such lines, r12) | drug 20% w/w, polymer inherent viscosity 0.69 dL/g, Lactide/Glycolide 50/50 (second of two such lines, r13) | drug 20% w/w, polymer inherent viscosity 0.76-0.94 dL/g, Lactide/Glycolide 50/50 | drug 20% w/w, polymer inherent viscosity 0.87 dL/g, Lactide/Glycolide 50/50 | drug 20% w/w, polymer inherent viscosity 0.95-1.20 dL/g, Lactide/Glycolide 50/50 | drug 20% w/w, polymer inherent viscosity 1.15 dL/g, Lactide/Glycolide 50/50 | drug 20% w/w, polymer inherent viscosity 1.24 dL/g, Lactide/Glycolide 50/50
−: drug 1% w/w, polymer inherent viscosity 0.26-0.54 dL/g, Lactide/Glycolide 50/50, Ester Terminated | drug 1% w/w, polymer inherent viscosity 0.55-0.75 dL/g, Lactide/Glycolide 50/50, Carbohydrate end Group | drug 1% w/w, polymer inherent viscosity 0.95-1.20 dL/g, Lactide/Glycolide 50/50 | drug 5% w/w, polymer inherent viscosity 0.26-0.54 dL/g, Lactide/Glycolide 50/50, Ester Terminated | drug 5% w/w, polymer inherent viscosity 0.55-0.75 dL/g, Lactide/Glycolide 50/50, Carbohydrate end Group | drug 5% w/w, polymer inherent viscosity 0.95-1.20 dL/g, Lactide/Glycolide 50/50 | drug 10% w/w, polymer inherent viscosity 0.26-0.54 dL/g, Lactide/Glycolide 50/50, Ester Terminated | drug 10% w/w, polymer inherent viscosity 0.55-0.75 dL/g, Lactide/Glycolide 50/50, Carbohydrate end Group | drug 10% w/w, polymer inherent viscosity 0.95-1.20 dL/g, Lactide/Glycolide 50/50 | drug 15% w/w, polymer inherent viscosity 0.26-0.54 dL/g, Lactide/Glycolide 50/50, Ester Terminated | drug 15% w/w, polymer inherent viscosity 0.55-0.75 dL/g, Lactide/Glycolide 50/50, Carbohydrate end Group | drug 15% w/w, polymer inherent viscosity 0.95-1.20 dL/g, Lactide/Glycolide 50/50 | drug 20% w/w, polymer inherent viscosity 0.26-0.54 dL/g, Lactide/Glycolide 50/50, Ester Terminated | drug 20% w/w, polymer inherent viscosity 0.55-0.75 dL/g, Lactide/Glycolide 50/50, Carbohydrate end Group

Reference: patent publication US11013817B2, “Nanoparticles for drug delivery to treat bone disease” (The Cleveland Clinic Foundation, priority 2016, dated 2021)
